Molecular target: T1, TxgGalNAc-T3 (Toxoplasma gondii, UniProt A0A125YMZ8)
T1 construct: gene TGME49_318730; luminal region (catalytic and lectin domains), aa 74-635; secreted from Pichia pastoris SMD1168; His tag removed with TEV protease
Assay: X-ray crystal structure
Format: binding
Conditions: crystals with Mn2+, UDP-GalNAc-F and glycopeptide (CST1.4 or Muc5AC series), pH 9.5; active site, UDP coordinates Mn2+A; added as UDP-GalNAc-F, only UDP modelled

T1 sequence (A0A125YMZ8 entry or part of it): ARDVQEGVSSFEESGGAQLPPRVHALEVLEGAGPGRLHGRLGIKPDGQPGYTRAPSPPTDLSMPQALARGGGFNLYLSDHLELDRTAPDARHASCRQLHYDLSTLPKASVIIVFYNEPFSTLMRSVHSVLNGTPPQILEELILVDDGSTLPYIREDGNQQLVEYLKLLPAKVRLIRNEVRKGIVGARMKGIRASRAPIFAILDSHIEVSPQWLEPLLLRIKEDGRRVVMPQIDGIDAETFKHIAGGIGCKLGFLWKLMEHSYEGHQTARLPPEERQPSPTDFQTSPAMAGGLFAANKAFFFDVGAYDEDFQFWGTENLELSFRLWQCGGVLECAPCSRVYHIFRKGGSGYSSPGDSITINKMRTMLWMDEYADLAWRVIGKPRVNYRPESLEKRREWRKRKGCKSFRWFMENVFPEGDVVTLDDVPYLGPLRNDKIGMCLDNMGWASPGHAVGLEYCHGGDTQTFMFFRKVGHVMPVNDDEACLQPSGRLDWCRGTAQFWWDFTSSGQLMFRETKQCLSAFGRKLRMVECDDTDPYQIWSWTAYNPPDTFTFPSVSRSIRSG

`O=c1ccn([C@@H]2O[C@H](COP(=O)(O)OP(=O)(O)O)[C@@H](O)[C@H]2O)c(=O)[nH]1` [UDP] was tested, and the X-ray crystal structure was “We modeled UDP into the active site but did not include GalNAc-F”.

Source: publication PMC11074326, “A Toxoplasma gondii O-glycosyltransferase that modulates bradyzoite cyst wall rigidity is distinct from host homologues” (Nature Communications, 2024)
